Tested on: Diet-induced obesity (DIO) mice
Assay: Blood glucose level in DIO mice
Assay type: in vivo, C57BL/6J mice
Protocol: In this study, RAASUS products (KH103, KHJ and KHGD) were dosed three times a day (T ID) for 99 days. […] On day 63 post dosing, OGTT test were conducted for all of the mice. […] On day −5, day 14, day 28 the non-fast blood was collected to determine the non-fast BG, insulin, TG, HDL-C, LDL-C and TCHO level. On day 42, day 56, day 70, day 84 the fast blood was collected to determine the fast BG, insulin, TG, HDL-C, LDL-C and TCHO level.
Male C57BL/6J mice (Shanghai Laboratory Animal Center, Shanghai, China, 5 weeks) were fed with high fat diet (D12492i, Research Diet, New Brunswick, N.J.) (caloric contribution: protein, 20%; fat, 60%; carbohydrates, 20%) ad lib for 21 weeks for the induction of obesity.
The mice of Group 3, Group 4 were orally dosed with KH103, KHJ respectively three times per day at 9:00, 13:00, 17:00 and free drinl<KH103, KHJ respectively at day and night from Day O to Day 99. […]
The random blood glucose, insulin level were measured using tailing nick once per two weeks on day −5, day 14, day 28.
The fast blood glucose (fast from 17:30 to 8:00 AM) insulin level were measured using tailing nick once per two weeks on day 42, day 56, day 70, day 84. […]
Blood Glucose: Blood glucose was determined using the Glucosemeter (Johnson and Johnson) and the Glucose Test Strips (Johnson and Johnson).

## CC(C)c1c(C(=O)Nc2ccccc2)c(-c2ccccc2)c(-c2ccc(F)cc2)n1CC[C@@H](O)C[C@@H](O)CC(=O)O [Atorvastatin]
DIO mice, po three times a day, compared with the vehicle groups, 12 weeks post dose
  blood glucose level: significantly decrease
Animal study, diabetics, general statement
  blood sugar level: lower down

Reference: patent publication US20190022061A1 (priority 2017, published 2019)
